# Measured values from patent US6232347A, “Treatment of osteoarthritis” (Knoll Pharmaceutical Company, priority 2000, dated 2001).
# Test system: reuptake of all three monoamines
# Assay: monoamine reuptake inhibition profile (summary in words of Table 1)
# Assay type: biochemical, rat
# Details: with reference to Table 1, sibutramine through its pharmacologically active metabolites
compound,measurement,value
"CC(C)CC(N(C)C)C1(c2ccc(Cl)cc2)CCC1 (stereo not shown) [Sibutramine, N,N-dimethyl-1-[1-(4-chlorophenyl)cyclobutyl]-3-methylbutylamine]",inhibition of monoamine reuptake / selectivity profile,inhibits the reuptake of all three monoamines
